Here are results for three compounds from PMC6271975, “Structure-Activity Relationship Study of Sesquiterpene Lactones and Their Semi-Synthetic Amino Derivatives as Potential Antitrypanosomal Products” (Molecules, 2014).

Data set [1] has as its system rat skeletal myoblasts (L6-cells). Also noted: method as in PMID 22331812, PMID 24080104, PMID 21624443, PMID 22396915. As to conditions: cytotoxicity; previously reported compounds included for comparison; cited from earlier work.
Data set [2] deals with T. b. rhodesiense STIB900. Also noted: method as in PMID 22331812, PMID 24080104. As to conditions: intraperitoneal, 10 mg/kg/b.i.d. for four consecutive days; cited from earlier work.
For data set [3], the system named is T. b. rhodesiense STIB 900 bloodstream forms. Also noted: method as in PMID 22331812, PMID 24080104, PMID 21624443, PMID 22396915. As to conditions: cited from earlier work; for SI (Selectivity Index): IC50 against L6 cells divided by IC50 against STIB 900 strain, previously reported compounds; for IC50: previously reported compounds included for comparison, compound 9 tested once, read-out: T. brucei STIB 900 IC50.

For data set [4], the system named is T. b. rhodesiense STIB900. The data set is described as follows: Acute mouse sleeping sickness model (STIB 900). In kind it is in vivo, NMRI mice. As to conditions: for signs of toxicity in mice: acute mouse model; for survival: po, average of all mice, untreated controls euthanized at day 10 post infection. On the procedure: This model mimics the first stage of the human African trypanosomiasis. Adult female NMRI mice were purchased from Janvier (St. Berthevin, France). They weighed between 20 and 25 g at the beginning of the study and were kept under standard conditions at 22 °C and 60%–70% humidity in macrolon type III cages with food pellets and water ad libitum. […] The samples were first dissolved in 100% DMSO, followed by addition of distilled H2O to a final DMSO concentration of 10%. For determination of the in vivo antitrypanosomal activity, mice were infected intraperitoneally with 1 × 10^4 STIB900 bloodstream forms. Experimental groups of four mice were treated orally once a day on four consecutive days from day 3 to day 6 post infection. A control group of four mice was infected, but remained untreated. The determination of the parasitaemia was done on day 7 post infection. […] Five μL of this mixture were transferred to a glass slide and covered with an 18 × 18 mm cover slide. The sample was examined under a light microscope (200-fold magnification) and parasites were counted in 3 of the 16 squares of the grid.

The test system of data set [5] is rat skeletal myoblasts (L6-cells). The data set is described as follows: cells. In kind it is cell-based. The protocol: The cytotoxicity assay was performed with rat skeletal myoblasts (L6-cells) seeded in 100 μL RPMI 1640 in 96-well micro titre plates, using the Alamar Blue assay described above. After 24 h the medium was removed and replaced by 100 μL of fresh RPMI 1640 with serial threefold drug dilution. Podophyllotoxin (purity > 95%, Sigma-Aldrich) was used as a reference drug. After 70 h of incubation under a humidified 5% CO2 atmosphere, 10 μL of the Alamar blue marker (see above) was added to all wells. The plates were incubated for an additional 2 h. A Spectramax Gemini XS micro plate fluorescence reader (Molecular Devices) was used to read the plates using an excitation wavelength of 536 nm and an emission wavelength of 588 nm. The IC50s were calculated from the sigmoidal growth inhibition curves using Softmax Pro software (Molecular Devices).

For data set [6], the system named is T. b. rhodesiense STIB 900 bloodstream forms. In words: In vitro antitrypanosomal Alamar Blue assay. In kind it is cell-based, Trypanosoma brucei rhodesiense. The protocol: Evaluation of in vitro antiprotozoal activity against T. b. rhodesiense was done using the Alamar Blue assay to determine IC50s as previously described. Serial threefold dilution were prepared in 96-well micro titre plates, and 4000 T. b. rhodesiense STIB 900 bloodstream forms in 50 μL were added to each well except for the negative controls. Melarsoprol (Arsobal®, purity > 95%, Sanofi-Aventis, Meyrin, Switzerland) was used as reference drugs. […] The IC50 values were calculated from the sigmoidal growth inhibition curves using Softmax Pro software (Molecular Devices).
(In general: Resazurin is reduced to fluorescent resorufin, in cell work by metabolically active cells.)

Structures are written as SMILES. “And” between values parts separate entries of the source, which are not always exact repeats. Equal entries are not always repeated. “Also recorded” adds a separate entry of the source. Structures can show the parent of a compound that is named as a salt. Where two headings read alike, the source gives them in different places.

What is called IC50 is the concentration at which inhibition is half-maximal. Turning to `C=C(CO)C(=O)O[C@H]1CC(=C)[C@@H]2C[C@H](O)C(=C)[C@@H]2[C@H]2OC(=O)C(=C)[C@@H]21` [Compound 1, Cynaropicrin], the IC50 in data set [1] was 2.2 ± 0.3 µM. Also, in data set [2], the cure of mice entry is given as “not able to cure the mice” and the parasitemia result is listed as “parasitemia was decreased over several days”. For the same compound, in data set [3], the “SI (Selectivity Index)” value is reported as 7.8 and the IC50 was 0.3 ± 0.001 µM. Besides, the “signs of toxicity in mice” value in data set [4] (oral administration) is listed as “euthanized on day 10 post infection due to obvious signs of cytotoxicity”. In addition, the “parasitemia on day 7 after infection” value in data set [4] (oral, 50 mg/kg body weight/day, four mice) was “reduced parasitemia”. Also, the “survival” value in data set [4] (4 × 50 mg/kg) is 9.5 days.

As to `C=C1CC(O)C2C(=C)C(=O)OC2C2C(=C)C(O)CC12` (stereo not shown) [Compound 5, Deacylcynaropicrin], the IC50 is 19 µM and 19.2 µM in data set [1]; 4.9 ± 0.34 µM in data set [3]. For the same compound, the “fold lower cytotoxicity as compared to 1” value in data set [5] (compared to compound 1) was “nine”. For the same compound, the “SI (Selectivity Index)” value in data set [3] is reported as 3.9. Also, the “fold lower antitrypanosomal activity as compared to 1” value in data set [6] (compared to compound 1) was found to be 16 fold.

Turning to `C=C(CO)C(=O)OC1CC(=C)C2CC(O)C(=C)C2C2OC(=O)C(CN(C)C)C12` (stereo not shown) [Compound 19, Cynaropicrin dimethylamine adduct hydrochloride], the 50% inhibitory concentration (IC50) in data set [5] (Rattus norvegicus, L6, cytotoxicity, 70 h incubation, average of three independent assays, read-out: L6 cells IC50) came out at 5.2 ± 1.3 µM; in data set [6] (Trypanosoma brucei, 70 h incubation, average of three independent assays, read-out: T. brucei STIB 900 IC50), 0.5 ± 0.003 µM. In data set [4] (oral administration), the “signs of toxicity in mice” value is given as “less signs of toxicity”. In data set [4] (oral administration, mean survival time versus control), the in vivo efficacy result is reported as “no in vivo efficacy; also recorded: did not show any in vivo efficacy”. The “survival” value in data set [4] (4 × 25 mg/kg) came to 8.5 days; in data set [4] (4 × 50 mg/kg), 10 days.
